The source of these data is US7060698B2, “Benzoxazepinone derivatives” (Hoffmann-La Roche Inc., priority 2003, dated 2006).

In this experiment the target is γ-secretase (Homo sapiens, UniProt P49768). As to the kind of experiment: in vitro assay of γ-secretase activity (HEK293 membrane fraction, recombinant APP substrate, Abeta ELISA). Type of experiment: biochemical. To be noted: statement in the synthesis example on the separated diastereomers; assay not named. The text has this:
The activity of test compounds can be evaluated in assays which measure the proteolytic cleavage of suitable substrates by γ-secretase activity. These can be cellular assays where e.g., a substrate of the γ-secretase is fused in its cytoplasmic domain to a transcription factor. Cells are transfected with this fusion gene and a reporter gene, e.g., firefly luciferase, which expression is enhanced by the transcription factor. Cleavage of the fused substrate by γ-secretase will lead to expression of the reporter gene which can be monitored in appropriate assays. The γ-secretase activity can also be determined in cell-free in vitro assays where e.g., a cell lysate containing the γ-secretase complex is incubated with a suitable APP-derived substrate which is cleaved to the Abeta peptides. The amount of produced peptides can be determined with specific ELISA assays. Cell lines of neuronal origin secrete Abeta peptides which can be measured with the specific ELISA assay. Treatment with compounds which inhibit γ-secretase leads to a reduction of secreted Abeta thus providing a measure of inhibition. The in vitro assay of γ-secretase activity uses a HEK293 membrane fraction as a source of γ-secretase and a recombinant APP substrate. Latter consist of the C-terminal 100 amino acids of human APP fused to a 6× Histidin tail for purification which is expressed in E. coli in a regulatable expression vector, e.g. pEt15. This recombinant protein corresponds to the truncated APP fragment which results after […] of the extracellular domain and which constitutes the γ-secretase substrate. The assay principle is described in Li Y M et al, PNAS 97(11), 6138–6143 (2000). Hek293 cells are mechanically disrupted and the microsomal fraction is isolated by differential centrifugation. The membranes are solubilized in detergent (0.25% CHAPSO) and incubated with the APP substrate.
Turning to `CCC1Oc2ccc(Cl)cc2C(C(=O)NC2CCCCC2)N(C2CCCCC2)C1=O` (stereo not drawn) [Example 6, 7-Chloro-4-cyclohexyl-2-ethyl-3-oxo-2,3,4,5-tetrahydro-benzo[f][1,4]oxazepine-5-carboxylic acid cyclohexylamide], the “inhibitory activity of the separated diastereomers” value (“inhibitory activity” below) is on record as “both inhibitorily active”.
As for `CCC1Oc2ccc(Cl)cc2C(C(=O)NC2CCCCC2)N(Cc2ccccc2Cl)C1=O` (stereo not drawn) [Example 7, 7-Chloro-4-(2-chloro-benzyl)-2-ethyl-3-oxo-2,3,4,5-tetrahydro-benzo[f][1,4]oxazepine-5-carboxylic acid cyclohexylamide], the “inhibitory activity” value is on record as “both inhibitorily active”.
With `CCC1Oc2ccc(Cl)cc2C(C(=O)NC2CCCCC2)N(C2CCCC2)C1=O` (stereo not drawn) [Example 9, 7-Chloro-4-cyclopentyl-2-ethyl-3-oxo-2,3,4,5-tetrahydro-benzo[f][1,4]oxazepine-5-carboxylic acid cyclohexylamide], the “inhibitory activity” value is given as “both inhibitorily active”.
On to `CCC1Oc2ccc(Cl)cc2C(C(=O)NC2CCCCC2)N(C2CCOCC2)C1=O` (stereo not drawn) [Example 10, 7-Chloro-2-ethyl-3-oxo-4-(tetrahydro-pyran-4-yl)-2,3,4,5-tetrahydro-benzo[f][1,4]oxazepine-5-carboxylic acid cyclohexylamide], for which the “inhibitory activity” value is reported as “both inhibitorily active”.
On to `CCC1Oc2ccc(Cl)cc2C(C(=O)NC2CCCCC2)N(Cc2cccc(C(F)(F)F)c2)C1=O` (stereo not drawn) [Example 11, 7-Chloro-2-ethyl-3-oxo-4-(3-trifluoromethyl-benzyl)-2,3,4,5-tetrahydro-benzo[f][1,4]oxazepine-5-carboxylic acid cyclohexylamide], for which the “inhibitory activity” value is “both inhibitorially active”.
`CCC1Oc2ccc(Cl)cc2C(C(=O)NC(C)(C)C)N(Cc2c(F)cccc2F)C1=O` (stereo not drawn) [Example 12, 7-Chloro-4-(2,6-difluoro-benzyl)-2-ethyl-3-oxo-2,3,4,5-tetrahydro-benzo[f][1,4]oxazepine-5-carboxylic acid tert-butylamide]: the “inhibitory activity” value is listed as “both inhibitorially active”.
For `CCC1Oc2ccc(Cl)cc2C(C(=O)NC(C)(C)C)N(C2CCCCC2)C1=O` (stereo not drawn) [Example 13, 7-Chloro-4-cyclohexyl-2-ethyl-3-oxo-2,3,4,5-tetrahydro-benzo[f][1,4]oxazepine-5-carboxylic acid tert-butylamide], the “inhibitory activity” value is on record as “both inhibitorily active”.
With `CCC1Oc2ccc(Cl)cc2C(C(=O)NC(C)(C)C)N(Cc2ccccc2Cl)C1=O` (stereo not drawn) [Example 14, 7-Chloro-4-(2-chloro-benzyl)-2-ethyl-3-oxo-2,3,4,5-tetrahydro-benzo[f][1,4]oxazepine-5-carboxylic acid tert-butylamide], the “inhibitory activity” value is listed as “both inhibitorily active”.
For `CCC1Oc2ccc(Cl)cc2C(C(=O)NC(C)(C)C)N(C2CCCC2)C1=O` (stereo not drawn) [Example 16, 7-Chloro-4-cyclopentyl-2-ethyl-3-oxo-2,3,4,5-tetrahydro-benzo[f][1,4]oxazepine-5-carboxylic acid tert-butylamide], the “inhibitory activity” value is “both inhibitorily active”.
